The source of these data is PMC7180948, “New Insights into 4-Anilinoquinazolines as Inhibitors of Cardiac Troponin I–Interacting Kinase (TNNi3K)” (Molecules, 2020).

What all share (assay): biochemical
Common to all, as to set-up: KINOMEscan competition binding panel (Eurofins DiscoverX), single concentration, percent inhibition
Holding throughout (details): read-out: 15 at 1 µM % inhibition

The target of one test is CSNK1A1 (Homo sapiens, UniProt P48729). In short, it runs like this: (§1)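 Values come from single-concentration (1 µM) profiling in the Eurofins DiscoverX KINOMEscan competition-binding platform, which covers over 400 kinases.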
For another test, the target named is EGFR(L747-T751del,Sins) (Homo sapiens, UniProt P00533, DEL747-750/T751S). In short, it runs like this:
as §1

Another test deals with EGFR(T790M) (Homo sapiens, UniProt P00533, T790M). In short, it runs like this: as §1
The target of another test is EPHB4 (Homo sapiens, UniProt P54760). In short, it runs like this:
as §1

The target of the next test is FRK (Homo sapiens, UniProt P42685). The essentials: as §1
A further test concerns the target GRK1 (Homo sapiens, UniProt Q15835). In short, it runs like this: as §1
A further test addresses HUNK (Homo sapiens, UniProt P57058). In short, it runs like this: as §1
The target in another test is IGF1R (Homo sapiens, UniProt P08069). In short, it runs like this:
as §1

The target in the next test is MAST1 (Homo sapiens, UniProt Q9Y2H9). The essentials: as §1
Another test deals with T1, MEK4 (Homo sapiens, UniProt P45985).
T1 construct: gene MAP2K4
In short, it runs like this:
as §1

The target in the next test is T2, MST1 (Homo sapiens, UniProt Q13043).
T2 construct: gene STK4
The essentials: as §1

Another test addresses MYO3A (Homo sapiens, UniProt Q8NEV4). In short, it runs like this:
as §1

The target in a further test is PHKG1 (Homo sapiens, UniProt Q16816). In short, it runs like this: as §1
The next test concerns the target PIK3CA(E542K) (Homo sapiens, UniProt P42336, E542K). In short, it runs like this:
as §1

The target in another test is PIK3CA(H1047L) (Homo sapiens, UniProt P42336, H1047L). The essentials: as §1
A further test has as its target PIK3CA(H1047Y) (Homo sapiens, UniProt P42336, H1047Y). The essentials: as §1
A further test addresses T3, PKAC-beta (Homo sapiens, UniProt P22694).
T3 construct: gene PRKACB
The essentials: as §1

Another test deals with PRKCD (Homo sapiens, UniProt Q05655). In short, it runs like this: as §1
For the next test, the target named is PRKX (Homo sapiens, UniProt P51817). The essentials: as §1
The target of a further test is ROCK2 (Homo sapiens, UniProt O75116). The essentials: as §1
In the next test the target is SRC (Homo sapiens, UniProt P12931). In short, it runs like this:
as §1

Another test deals with T4, SgK110 (Homo sapiens, UniProt P0C264).
T4 construct: gene SBK3
In short, it runs like this: as §1

The next test addresses T5, VPS34 (Homo sapiens, UniProt Q8NEB9).
T5 construct: gene PIK3C3
In short, it runs like this: as §1

Another test has as its target WNK3 (Homo sapiens, UniProt Q9BYP7). In short, it runs like this: as §1

Sequence of EGFR(T790M) (P00533 whole entry T790M): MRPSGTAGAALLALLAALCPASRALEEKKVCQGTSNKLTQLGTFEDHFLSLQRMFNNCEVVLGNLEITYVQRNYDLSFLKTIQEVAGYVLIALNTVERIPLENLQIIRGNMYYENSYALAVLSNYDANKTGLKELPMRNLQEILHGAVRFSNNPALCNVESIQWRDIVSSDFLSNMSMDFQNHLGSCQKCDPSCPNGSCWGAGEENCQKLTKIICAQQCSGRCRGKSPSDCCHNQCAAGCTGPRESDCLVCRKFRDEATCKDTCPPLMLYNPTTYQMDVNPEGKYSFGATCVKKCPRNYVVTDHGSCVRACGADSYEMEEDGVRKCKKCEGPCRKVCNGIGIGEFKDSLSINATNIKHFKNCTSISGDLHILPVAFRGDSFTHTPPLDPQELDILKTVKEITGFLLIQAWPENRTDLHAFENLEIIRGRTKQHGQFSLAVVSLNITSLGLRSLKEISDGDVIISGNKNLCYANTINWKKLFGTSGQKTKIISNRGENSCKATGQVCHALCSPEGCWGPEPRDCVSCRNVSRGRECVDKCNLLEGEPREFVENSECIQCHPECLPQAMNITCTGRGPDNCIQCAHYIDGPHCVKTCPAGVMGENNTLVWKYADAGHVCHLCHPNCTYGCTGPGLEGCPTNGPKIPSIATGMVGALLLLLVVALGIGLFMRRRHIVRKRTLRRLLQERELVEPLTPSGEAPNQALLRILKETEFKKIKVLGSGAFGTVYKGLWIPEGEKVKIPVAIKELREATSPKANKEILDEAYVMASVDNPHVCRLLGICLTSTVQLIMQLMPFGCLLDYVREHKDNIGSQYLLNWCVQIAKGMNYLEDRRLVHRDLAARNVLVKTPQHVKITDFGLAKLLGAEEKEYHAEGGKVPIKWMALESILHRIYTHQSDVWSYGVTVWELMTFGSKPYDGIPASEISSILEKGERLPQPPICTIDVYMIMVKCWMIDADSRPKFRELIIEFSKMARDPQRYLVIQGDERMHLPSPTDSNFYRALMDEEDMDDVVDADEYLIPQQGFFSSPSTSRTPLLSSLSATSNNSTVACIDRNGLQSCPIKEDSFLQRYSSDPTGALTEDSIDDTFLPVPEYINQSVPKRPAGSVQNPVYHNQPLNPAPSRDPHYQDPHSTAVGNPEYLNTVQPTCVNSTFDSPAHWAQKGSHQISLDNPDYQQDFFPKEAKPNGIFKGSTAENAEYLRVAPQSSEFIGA
Sequence of FRK (P42685 whole entry): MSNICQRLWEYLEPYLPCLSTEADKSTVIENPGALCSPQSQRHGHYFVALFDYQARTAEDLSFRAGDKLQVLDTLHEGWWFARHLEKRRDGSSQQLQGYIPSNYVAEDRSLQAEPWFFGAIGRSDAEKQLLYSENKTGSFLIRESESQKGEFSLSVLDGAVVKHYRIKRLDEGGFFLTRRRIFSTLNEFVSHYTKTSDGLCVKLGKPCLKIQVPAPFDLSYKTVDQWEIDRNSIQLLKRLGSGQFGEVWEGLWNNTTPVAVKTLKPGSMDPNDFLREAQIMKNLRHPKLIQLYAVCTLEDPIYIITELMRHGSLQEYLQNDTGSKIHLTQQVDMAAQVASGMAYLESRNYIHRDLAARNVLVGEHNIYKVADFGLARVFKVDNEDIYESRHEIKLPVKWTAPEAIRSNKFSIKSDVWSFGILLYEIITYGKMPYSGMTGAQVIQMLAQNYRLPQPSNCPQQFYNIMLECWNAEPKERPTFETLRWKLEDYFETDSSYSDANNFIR
Sequence of GRK1 (Q15835 whole entry): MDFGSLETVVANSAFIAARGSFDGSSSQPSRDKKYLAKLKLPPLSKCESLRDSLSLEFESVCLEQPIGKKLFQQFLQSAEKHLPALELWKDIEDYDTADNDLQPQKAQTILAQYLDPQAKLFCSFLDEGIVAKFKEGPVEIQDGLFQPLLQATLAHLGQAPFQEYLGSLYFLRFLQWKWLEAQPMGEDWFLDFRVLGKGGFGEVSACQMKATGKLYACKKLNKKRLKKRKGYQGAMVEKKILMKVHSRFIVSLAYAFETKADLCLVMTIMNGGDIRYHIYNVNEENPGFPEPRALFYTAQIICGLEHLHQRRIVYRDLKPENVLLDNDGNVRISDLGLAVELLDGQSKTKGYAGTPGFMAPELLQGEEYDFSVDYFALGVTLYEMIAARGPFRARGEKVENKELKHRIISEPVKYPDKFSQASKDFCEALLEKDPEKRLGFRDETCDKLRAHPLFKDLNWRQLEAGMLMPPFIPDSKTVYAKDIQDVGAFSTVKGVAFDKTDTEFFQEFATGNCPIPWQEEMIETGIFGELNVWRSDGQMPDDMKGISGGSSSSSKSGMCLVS
T4 sequence (P0C264 whole entry): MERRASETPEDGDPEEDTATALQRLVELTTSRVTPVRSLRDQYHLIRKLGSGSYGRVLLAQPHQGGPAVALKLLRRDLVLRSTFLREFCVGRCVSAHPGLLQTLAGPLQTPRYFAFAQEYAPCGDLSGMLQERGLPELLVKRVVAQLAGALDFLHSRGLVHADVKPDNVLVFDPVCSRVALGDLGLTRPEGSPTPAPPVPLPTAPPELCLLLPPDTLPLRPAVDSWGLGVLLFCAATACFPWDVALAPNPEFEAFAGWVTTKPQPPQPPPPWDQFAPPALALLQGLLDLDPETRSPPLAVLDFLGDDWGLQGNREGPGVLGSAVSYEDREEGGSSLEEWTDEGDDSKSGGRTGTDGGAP
T2 sequence (Q13043 whole entry): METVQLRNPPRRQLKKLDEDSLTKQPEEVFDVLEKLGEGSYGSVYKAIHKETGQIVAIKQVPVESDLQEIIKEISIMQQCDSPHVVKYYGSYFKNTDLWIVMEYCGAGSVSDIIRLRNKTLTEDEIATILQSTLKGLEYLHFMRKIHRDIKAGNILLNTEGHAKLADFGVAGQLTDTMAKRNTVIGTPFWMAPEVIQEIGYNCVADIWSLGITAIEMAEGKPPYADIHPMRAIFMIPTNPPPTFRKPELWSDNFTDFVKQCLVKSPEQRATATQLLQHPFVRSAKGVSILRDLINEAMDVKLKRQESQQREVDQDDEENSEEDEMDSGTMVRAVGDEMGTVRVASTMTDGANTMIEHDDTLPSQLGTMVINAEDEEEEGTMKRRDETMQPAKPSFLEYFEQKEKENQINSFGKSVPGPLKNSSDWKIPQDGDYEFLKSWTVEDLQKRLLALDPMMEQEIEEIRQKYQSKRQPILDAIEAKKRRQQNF
Sequence of ROCK2 (O75116 whole entry): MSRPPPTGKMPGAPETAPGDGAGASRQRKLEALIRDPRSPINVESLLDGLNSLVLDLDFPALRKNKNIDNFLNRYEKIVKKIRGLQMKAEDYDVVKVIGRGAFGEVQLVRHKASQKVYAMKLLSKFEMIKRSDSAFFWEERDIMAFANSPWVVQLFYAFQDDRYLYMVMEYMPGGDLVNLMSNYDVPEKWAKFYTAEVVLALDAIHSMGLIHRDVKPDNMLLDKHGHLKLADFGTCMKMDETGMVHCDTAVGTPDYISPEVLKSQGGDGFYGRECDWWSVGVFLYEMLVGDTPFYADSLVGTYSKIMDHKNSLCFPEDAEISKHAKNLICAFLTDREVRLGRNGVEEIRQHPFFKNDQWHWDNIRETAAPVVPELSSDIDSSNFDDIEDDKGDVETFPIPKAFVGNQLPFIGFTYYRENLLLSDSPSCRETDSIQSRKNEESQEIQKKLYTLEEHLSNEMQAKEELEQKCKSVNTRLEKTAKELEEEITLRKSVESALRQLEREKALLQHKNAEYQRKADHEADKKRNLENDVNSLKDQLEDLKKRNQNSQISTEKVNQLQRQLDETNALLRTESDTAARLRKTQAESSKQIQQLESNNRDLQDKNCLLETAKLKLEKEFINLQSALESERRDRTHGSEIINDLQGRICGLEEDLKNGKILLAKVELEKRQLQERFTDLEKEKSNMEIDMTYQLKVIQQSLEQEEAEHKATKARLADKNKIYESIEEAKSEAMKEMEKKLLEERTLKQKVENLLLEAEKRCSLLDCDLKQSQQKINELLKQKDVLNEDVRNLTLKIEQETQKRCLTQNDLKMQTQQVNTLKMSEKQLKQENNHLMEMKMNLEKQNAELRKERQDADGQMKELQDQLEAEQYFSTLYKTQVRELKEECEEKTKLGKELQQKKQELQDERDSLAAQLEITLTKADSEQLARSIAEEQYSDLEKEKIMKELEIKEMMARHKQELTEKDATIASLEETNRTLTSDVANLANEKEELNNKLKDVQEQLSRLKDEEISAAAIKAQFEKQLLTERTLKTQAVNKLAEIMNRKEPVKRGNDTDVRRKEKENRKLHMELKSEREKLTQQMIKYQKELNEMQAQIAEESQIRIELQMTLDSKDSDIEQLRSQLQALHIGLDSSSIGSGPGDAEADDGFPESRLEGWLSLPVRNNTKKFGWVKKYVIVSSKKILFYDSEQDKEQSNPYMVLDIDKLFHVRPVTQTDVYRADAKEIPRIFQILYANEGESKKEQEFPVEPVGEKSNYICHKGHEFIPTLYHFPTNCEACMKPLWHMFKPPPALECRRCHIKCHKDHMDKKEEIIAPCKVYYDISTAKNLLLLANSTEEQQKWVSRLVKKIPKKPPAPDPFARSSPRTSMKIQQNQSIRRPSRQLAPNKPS
Sequence of PRKX (P51817 whole entry): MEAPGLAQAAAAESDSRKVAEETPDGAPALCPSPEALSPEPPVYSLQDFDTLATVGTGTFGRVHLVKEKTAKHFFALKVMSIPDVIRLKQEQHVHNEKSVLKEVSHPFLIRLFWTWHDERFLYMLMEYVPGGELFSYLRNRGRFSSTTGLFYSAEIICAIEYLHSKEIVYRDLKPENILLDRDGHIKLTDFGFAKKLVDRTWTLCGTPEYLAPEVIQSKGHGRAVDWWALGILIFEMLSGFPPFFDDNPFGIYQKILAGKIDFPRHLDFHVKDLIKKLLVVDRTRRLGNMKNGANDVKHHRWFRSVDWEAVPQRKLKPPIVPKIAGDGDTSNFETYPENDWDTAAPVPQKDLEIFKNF

With `CNS(=O)(=O)c1ccc(N(C)C)c(Nc2nc(C)nc3cc(OC)c(OC)cc23)c1` [compound 15, 3-((6,7-dimethoxy-2-methylquinazolin-4-yl)amino)-4-(dimethylamino)-N-methylbenzenesulfonamide], the inhibition (usually the change of the read-out against control, counted positive when it falls) at 1 µM on CSNK1A1 worked out at 0%; on EGFR(L747-T751del,Sins) it was 0%; at EGFR(T790M), 25%; at EPHB4, 0%; on FRK it was 0%; on GRK1 it was 20%. In addition, the inhibition at 1 µM on HUNK was determined as 0%; at IGF1R it was 0%; on MAST1 it was 14%; at MEK4 it was 25%; at MST1, 5%; at MYO3A it was 0%. Moreover, the inhibition at 1 µM was found to be 0% at PHKG1; 22% on PIK3CA(E542K); 21% at PIK3CA(H1047L); 21% at PIK3CA(H1047Y); 0% at PKAC-beta; 1% on PRKCD. Also, the inhibition at 1 µM on PRKX amounted to 0%; at ROCK2 it was 5%; at SRC, 0%; at SgK110, 0%; at VPS34, 25%; on WNK3 it was 0%.
